Test results from publication PMC6597546, “Identification of a potent benzoxaborole drug candidate for treating cryptosporidiosis” (Nature Communications, 2019).
Values after ≈ are worked out from the molar mass of the structure shown. Values joined by “and” are separate entries in the source; they are usually repeats but may differ in a detail not shown here. Identical values can stand only once. “Also recorded” adds a separate entry of the source. Like-named read-outs stand apart in the source and are kept apart here.

Assays:
C. hominis TU502 isolate = experiment: C. hominis growth inhibition in HCT-8 cells; assay type: cell-based, Cryptosporidium hominis; settings: single replicates, unit inferred, read-out: In vitro efficacy (Fig 2b, EC50)
Protocol: Follow-up assays were performed at the University of Vermont (UVM) and Calibr at Scripps Research by infection of the colonic adenocarcinoma cell line HCT-8 (ATCC CCL-244) and staining with the Vicia villosa lectin and DAPI[17],[32]. The FBS concentrations and parasites used for these assays were as indicated; parasite isolates and sources included C. parvum Iowa isolate oocysts purchased from Bunch Grass Farm (Deary, ID), C. parvum Iowa isolate oocysts purchased from the Sterling Laboratory (University of Arizona, Tucson, AZ), wild type C. parvum oocysts provided by Dr. Jenni Zambriski (Virginia Tech, Blacksburg, VA), and the C. hominis TU502 isolate purchased from Dr. Saul Tzipori (Tufts University Cummings School of Veterinary Medicine, North Grafton, MA).

[1] = Cytotoxicity murine L929 (3d); assay type: cell-based; settings: mouse, L929 cells, 25 µM highest concentration tested
[2] = system: C. parvum intracellular DNA synthesis; experiment: EdU incorporation DNA replication assay; assay type: cell-based, Cryptosporidium parvum; settings: 2 × EC90 = 0.42 µM
Protocol: The invasion assay, DNA replication assay, asexual to sexual stage conversion, and time-kill curve assays were performed using fluorescence microscopy to enumerate parasites and host cell nuclei. Staining protocols are individually described for each assay. Unless noted otherwise, the details of image acquisition were as follows. An inverted Nikon Eclipse Ti2000 microscope with an automated stage and Perfect Focus was used with NIS-Elements Advanced Research software (Nikon, USA, version 4.30.01) to image the wells. The microscope was programmed to focus on the center of each well and then take a 3 × 3 composite image per well using a 20 × (0.45 NA) objective. Images were exported as .tiff files and parasites and host nuclei counted using a custom macro on ImageJ (National Institutes of Health, version 1.52a). Data were analyzed using Microsoft Excel and GraphPad Prism (version 6.01). Measurement of DNA replication was used as a surrogate marker of Cryptosporidium development within HCT-8 cells. […] Images were acquired by focusing on the parasite focal plane, which is on top of the host cell monolayer, using a ×40 objective (0.7 NA) and EdU and lectin numbers were quantified using ImageJ software.

[3] = system: C. parvum DMC1 positive parasites; experiment: Asexual-to-sexual stage conversion assay (DMC1 expression); assay type: cell-based, Cryptosporidium parvum
Protocol: The invasion assay, DNA replication assay, asexual to sexual stage conversion, and time-kill curve assays were performed using fluorescence microscopy to enumerate parasites and host cell nuclei. Staining protocols are individually described for each assay. Unless noted otherwise, the details of image acquisition were as follows. An inverted Nikon Eclipse Ti2000 microscope with an automated stage and Perfect Focus was used with NIS-Elements Advanced Research software (Nikon, USA, version 4.30.01) to image the wells. The microscope was programmed to focus on the center of each well and then take a 3 × 3 composite image per well using a 20 × (0.45 NA) objective. Images were exported as .tiff files and parasites and host nuclei counted using a custom macro on ImageJ (National Institutes of Health, version 1.52a). Data were analyzed using Microsoft Excel and GraphPad Prism (version 6.01). […] Amphotericin B (Sigma, catalog# A2942) was added to the culture media at 0.1 to 0.5 µg per mL for the DMC1 dose response assays.

[4] = system: C. parvum (Bunch Grass Farms Iowa isolate); experiment: NOD scid gamma (NSG) mouse model of established C. parvum infection; assay type: in vivo, NOD scid gamma mice; settings: for reduction of parasite shedding: after 4 days of treatment
Protocol: NOD scid gamma mice (NOD.Cg-Prkdcscid Il2rgtm1Wjl/SzJ)[55] (NSG) were used to model chronic Cryptosporidium infection. All NSG mouse studies were performed in compliance with animal care guidelines and with approval by the University of Vermont Institutional Animal Care and Use Committee. NSG mice with normal flora were purchased from The Jackson Laboratory (Bar Harbor, ME) and were housed for at least a week for acclimatization. […] Fecal parasite shedding was measured using a quantitative PCR (qPCR) assay, and the primers named above as Cp18s forward and Cp18s reverse.

[5] = system: 109 off-target enzymes and receptors; experiment: Lead Profiling and Adverse Reaction Enzyme off-target panel; assay type: binding; settings: 10 µM
Protocol: In vitro safety profiling studies were conducted by Ricerca Biosciences (Taipei, Taiwan) and WuXi AppTec (Suzhou, China). Ricerca performed a Lead Profiling and Adverse Reaction Enzyme panel of 109 off-target enzymes and receptors. This included the hERG K+ ion channel, which is associated with cardiac tachyarrhythmias, and used a radioligand binding competition format with 10 µM test compound for 1 h at 25 °C. For the enzyme and receptor panel, competitive inhibition at 10 µM of test compound was the most common assay format. The AMES bacterial reverse mutation assay detects point mutations in Escherichia coli and Salmonella typhimurium as an indicator of mutagenic activity. Bacterial strains were obtained from Molecular Toxicology (Boone, NC).

Solubility PBS pH 7.4 = assay type: physicochemical; settings: aqueous buffer
[6] = Plasma Protein Binding (mouse); assay type: in vitro ADME; settings: read-out: Plasma Protein Binding (PPB) (converted)

CC1(C)OB(O)c2cc(NC(=O)c3ccc(-n4cccn4)cc3Cl)ccc21 [AN7973]
EC50 (C. hominis TU502 isolate; C. hominis (Tu502, 2%FBS)): 570 nM and 580 nM
EC50 (C. hominis TU502 isolate; Cryptosporidium hominis, HCT-8, C. hominis (Tu502, 2%FBS)): 750 nM
IC50 at 3 d [1]: > 25000 nM
effect on intracellular DNA synthesis (EdU incorporation) [2]: arrested new DNA synthesis
EC50 ([3]; Cryptosporidium parvum, BGF Iowa isolate, HCT-8, 10% FBS, DMC1, interval in parentheses, read-out: EC50 asexual-to-sexual conversion (48–72 h)): 480 nM
% inhibition, 48 - 72 h DMC1 (asexual to sexual conversion) ([3]; log [AN7973] (M) 0.10): 95.75%
% inhibition, 48 - 72 h DMC1 (asexual to sexual conversion) ([3]; log [AN7973] (M) 0.28): 95.64% and 78.65%
% inhibition, 48 - 72 h DMC1 (asexual to sexual conversion) ([3]; log [AN7973] (M) 0.40): 95.48%
% inhibition, 48 - 72 h DMC1 (asexual to sexual conversion) ([3]; log [AN7973] (M) -0.20): 85.62% and 65.23% and 46.69%
% inhibition, 48 - 72 h DMC1 (asexual to sexual conversion) ([3]; log [AN7973] (M) -0.68): -48.74% and -54.94% and -50.77%
% inhibition, 48 - 72 h DMC1 (asexual to sexual conversion) ([3]; log [AN7973] (M) -0.93): -98.53%
% inhibition, 48 - 72 h DMC1 (asexual to sexual conversion) ([3]; log [AN7973] (M) -1.23): -40.27%
% inhibition, 48 - 72 h DMC1 (asexual to sexual conversion) ([3]; log [AN7973] (M) -1.53): -58.48%
% inhibition, 48 - 72 h DMC1 (asexual to sexual conversion) ([3]; log [AN7973] (M) -2.01): -35.29%
% inhibition, 48 - 72 h DMC1 (asexual to sexual conversion) ([3]; log [AN7973] (M) -2.48): -28.64%
reduction of parasite shedding ([4]; 10 mg per kg once daily oral gavage): > 90%
parasite fecal shedding (qPCR), individual mice ([4]; 10 mg/kg, D7 (before treatment)): 58.681 oocysts/mg feces and 43.169 oocysts/mg feces and 158.993 oocysts/mg feces and 120.558 oocysts/mg feces
parasite fecal shedding (qPCR), individual mice ([4]; 10 mg/kg, D11): 7.142 oocysts/mg feces and 1.830 oocysts/mg feces and 16.882 oocysts/mg feces and 7.589 oocysts/mg feces
reduction of parasite shedding ([4]; 25 mg per kg once daily oral gavage): > 99%
parasite fecal shedding (qPCR), individual mice ([4]; 25 mg/kg, D7 (before treatment)): 379.464 oocysts/mg feces and 632.650 oocysts/mg feces and 267.595 oocysts/mg feces and 299.397 oocysts/mg feces
parasite fecal shedding (qPCR), individual mice ([4]; 25 mg/kg, D11, ND = not detected, lower limit of detection 0.1): 0.825 oocysts/mg feces
adverse effects in NSG mice ([4]; treated NSG mice gained weight normally): no adverse effects were observed
In vitro Receptor Panel (109 targets) [5]: Negative; also recorded: no significant findings
solubility (Solubility PBS pH 7.4): 126 µM (≈ 48.1 µg/mL)
fraction unbound [6]: 0.011
